Data on one compound can be found in article PMC12851007 (Angewandte Chemie (International Ed. in English), 2025).

The assay in a line: CX4/LCG tandem membrane assay with subsequent addition of spermine (transient vs stable pores). The settings on record: TP10 0.2 µM or melittin 5 nM at 60 s, spermine 20 µM at 340 s, 10 mM Hepes, 175 mM glucose, pH 7.5. It counts as in vitro ADME. As to the method:
This means that TP10 renders the vesicle membranes only transiently permeable, while after some time, the pores “close”, most likely due to equilibration of the inside and outside concentrations of TP10. At sufficiently low TP10 concentrations, the vesicles have consequently released only some of their content after a certain incubation time and no further release of encapsulated compounds is observed thereafter. The transient nature of the TP10 pores was also confirmed herein by the CX4/LCG tandem membrane assay (Figure 4, black line). […] At this point of time, the TP10 pores should be either closed, or there should be some remaining stable equilibrium pores, which are too small to allow efflux of relatively large CX4 and/or LCG (MW > 500 Da), but sufficiently large to allow CF efflux (MW = 376 Da). Closed pores would refer to the previously reported graded mechanism, whereas the latter would point toward an all‐or‐none release mechanism.^[ [12], [70] ^] […] The newly developed assay has therefore the added capacity to afford more fine‐grained mechanistic information on membrane activity.
The blue trace is a control to illustrate full dissociation of the CX4/LCG complex during vesicle lysis by TX‐100.
LysisLysis vesicle lysisvesicle lysis […]
calibration cocktail at 600 s. a) Original changes in fluorescence intensity of LCG ( λex = 369 nm, λem = […]

As for `CC[C@H](C)[C@H](NC(=O)[C@H](CCCCN)NC(=O)[C@H](CCCCN)NC(=O)[C@H](C)NC(=O)[C@H](CC(C)C)NC(=O)[C@H](C)NC(=O)[C@H](C)NC(=O)[C@H](CC(C)C)NC(=O)[C@H](C)NC(=O)[C@H](CCCCN)NC(=O)[C@H](CC(C)C)NC(=O)[C@H](CC(N)=O)NC(=O)[C@@H](NC(=O)[C@H](CCCCN)NC(=O)CNC(=O)[C@H](CC(C)C)NC(=O)[C@H](CC(C)C)NC(=O)[C@H](Cc1ccc(O)cc1)NC(=O)CNC(=O)[C@H](C)N)[C@@H](C)CC)C(=O)N[C@@H](CC(C)C)C(=O)O` [TP10], the “kind of pores (fluorescence response to spermine added after the peptide)” value was “absence of stable TP10 pores”.
